From PubChem BioAssay (NCI)
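Step 1: Grow cells in 96-well plates. Step 2: Expose to compound for 48 hours at 5 concentrations. Step 3: Interpolate endpoints linearly; if unreached, use highest concentration. Here, GI50 denotes the concentration required for 50% inhibition of growth. TGI is the concentration that stops growth completely.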

What was measured:
Assay in all cases: growth of human tumour cells (NCI), 48 h
HT29 colon = system: HT29 colon
HL-60(TB) leukemia = system: HL-60(TB) leukemia
OVCAR-3 ovarian = system: OVCAR-3 ovarian
NCI-H226 lung = system: NCI-H226 lung
SK-OV-3 ovarian = system: SK-OV-3 ovarian
MDA-MB-435 = system: MDA-MB-435
SNB-19 CNS = system: SNB-19 CNS
TK-10 renal = system: TK-10 renal
SF-539 CNS = system: SF-539 CNS
NCI-H460 lung = system: NCI-H460 lung

Structure (SMILES) | TGI (HT29 colon) [µM] | TGI (HL-60(TB) leukemia) [µM] | TGI (OVCAR-3 ovarian) [µM] | TGI (NCI-H226 lung) [µM] | TGI (SK-OV-3 ovarian) [µM] | TGI (MDA-MB-435) [µM] | TGI (SNB-19 CNS) [µM] | TGI (TK-10 renal) [µM] | TGI (SF-539 CNS) [µM] | TGI (NCI-H460 lung) [µM] | GI50 (HT29 colon) [µM] | GI50 (HL-60(TB) leukemia) [µM] | GI50 (OVCAR-3 ovarian) [µM] | GI50 (NCI-H226 lung) [µM] | GI50 (SK-OV-3 ovarian) [µM] | GI50 (MDA-MB-435) [µM] | GI50 (SNB-19 CNS) [µM] | GI50 (TK-10 renal) [µM] | GI50 (SF-539 CNS) [µM] | GI50 (NCI-H460 lung) [µM]
CC(=NNC(=S)Nc1ccccc1)c1cccc(C(C)=NNC(=S)Nc2ccccc2)n1 | > 100 | > 20.6 | > 28.5 | > 44 | > 84.5 | > 100 | > 100 | > 100 | 12.5 | > 56.8 | – | – | – | – | – | – | – | – | – | –
NC(=O)c1c(NC(=O)c2ccccc2)sc2c1CCC(=O)C2 | > 100 | 3.57 | 2.72 | 9.1 | > 100 | 10.5 | > 100 | > 100 | 3.27 | > 100 | 2.33 | 0.378 | 1.02 | 2.2 | 2.91 | 3.09 | 3.29 | 6.91 | 0.75 | 3.04
COC1=CC(=O)c2c(c(-c3nc(C)cs3)cn2C)C1=O | 21 | 9.44 | 6.09 | 77.2 | > 100 | 1.4 | > 100 | > 100 | 9.94 | 3.82 | – | – | – | – | – | – | – | – | – | –
N[C@@H](Cc1ccccc1)C(=O)N1CCC[C@@H]1P(=O)(Oc1ccccc1)Oc1ccccc1 | > 100 | > 100 | > 100 | > 100 | > 100 | > 100 | > 100 | > 100 | > 100 | > 100 | – | – | – | – | – | – | – | – | – | –
Cc1nc(C)c(C(=O)NNC(=O)C[N+](C)(C)C)cc1C(=O)NNC(=O)C[N+](C)(C)C | > 100 | > 100 | > 100 | > 100 | > 100 | > 100 | > 100 | > 100 | > 100 | > 100 | – | – | – | – | – | – | – | – | – | –
NCCCN1c2ccccc2Sc2ccc(Cl)cc21 | > 6.59 | > 10 | > 10 | > 10 | > 10 | 4.01 | > 10 | > 10 | > 10 | > 7.31 | – | – | – | – | – | – | – | – | – | –
CC1=CCC([C@@](C)(O)CCCC(C)(C)N=C=S)CC1 (stereo not given in full) | 32.9 | 43.8 | 32.6 | 32.1 | 32.9 | 31 | 31.1 | 37.8 | 33.3 | 33 | – | – | – | – | – | – | – | – | – | –
Cc1ccc(S(=O)(=O)n2c3c(c4ccccc42)CCN2C[C@H]([C@H](C)Br)CC[C@@H]32)cc1 | > 100 | > 100 | > 100 | > 100 | > 100 | > 100 | > 100 | > 100 | > 100 | > 100 | – | – | – | – | – | – | – | – | – | –
Oc1cc(Cl)cc2cccnc12 | 32.2 | 0.727 | 3.18 | 69.6 | > 100 | > 77.6 | > 100 | > 100 | > 67 | 18.6 | – | – | – | – | – | – | – | – | – | –
CC1(C)OC[C@@H](O)[C@H](C#N)CO1 | > 100 | > 100 | > 100 | > 100 | > 100 | > 100 | > 100 | > 100 | > 100 | > 100 | – | – | – | – | – | – | – | – | – | –
O=C1c2cc(-c3ccccc3)cnc2S(=O)(=O)N1c1ccc(Br)cc1 | > 100 | > 100 | > 100 | > 100 | 53.9 | > 100 | 35 | > 100 | 87.2 | 75 | – | – | – | – | – | – | – | – | – | –
O=C(O)CN1CCNCCN(CC(=O)O)CCN(CC(=O)O)CCNCC1 | > 100 | 64.6 | > 100 | > 100 | > 100 | > 100 | > 100 | > 100 | > 100 | > 100 | – | – | – | – | – | – | – | – | – | –
Cc1nn(-c2ccccc2)c2c1C(c1cc3ccccc3nc1Cl)NC(=O)N2 (stereo not given) | 35.4 | 52.6 | > 100 | 60.1 | 49.1 | 54.7 | 48.1 | > 100 | 45.9 | > 100 | – | – | – | – | – | – | – | – | – | –
CCCCCC#CCOC(=O)C(=[N+]=[N-])P(=O)(c1ccccc1)c1ccccc1 | > 10 | > 10 | > 10 | > 10 | > 10 | > 10 | > 10 | > 10 | > 10 | > 10 | – | – | – | – | – | – | – | – | – | –
O=c1[nH][nH]c(=O)n1CCCCCCn1c(=O)[nH][nH]c1=O | > 100 | > 100 | > 100 | > 100 | > 100 | > 100 | > 100 | > 100 | > 100 | > 100 | – | – | – | – | – | – | – | – | – | –
COc1cc(O)c2c(c1)C(=O)c1cc3c(c(O)c1C2=O)C(OC1OC(C)C(OC)C(O)C1OC)C(OC)C(C)(O)C3=O (stereo not given) | 11.8 | > 100 | 22.6 | 9.54 | 97 | 16.1 | 23.3 | 23.7 | 17.8 | 10.8 | – | – | – | – | – | – | – | – | – | –
COc1ccc(N2C(=O)CC(=O)N(NC(=O)C(C)Oc3ccccc3C)C2=S)cc1 (stereo not given) | > 100 | > 100 | > 100 | > 100 | > 100 | > 100 | > 100 | > 100 | > 100 | > 100 | – | – | – | – | – | – | – | – | – | –

Structure (SMILES) | TGI (HT29 colon) [µM] | TGI (HL-60(TB) leukemia) [µM] | TGI (OVCAR-3 ovarian) [µM] | TGI (NCI-H226 lung) [µM] | TGI (SK-OV-3 ovarian) [µM] | TGI (MDA-MB-435) [µM] | TGI (SNB-19 CNS) [µM] | TGI (TK-10 renal) [µM] | TGI (SF-539 CNS) [µM] | TGI (NCI-H460 lung) [µM] | GI50 (HT29 colon) [µM] | GI50 (HL-60(TB) leukemia) [µM] | GI50 (OVCAR-3 ovarian) [µM] | GI50 (NCI-H226 lung) [µM] | GI50 (SK-OV-3 ovarian) [µM] | GI50 (MDA-MB-435) [µM] | GI50 (SNB-19 CNS) [µM] | GI50 (TK-10 renal) [µM] | GI50 (SF-539 CNS) [µM] | GI50 (NCI-H460 lung) [µM]
C=C1C(=O)CC2C1CC(=O)/C(C)=C/CCC(C)(O)C2O (stereo not given) | 26.9 | 10.1 | 17 | 61.6 | 49.8 | 20.4 | > 67.1 | 8.51 | > 24.4 | 45.5 | – | – | – | – | – | – | – | – | – | –
Cc1nc(C)c(N2CCN([N+](=O)[O-])CC2)c(=O)[nH]1 | > 100 | > 100 | > 100 | > 100 | > 100 | > 100 | > 100 | > 100 | > 100 | > 100 | – | – | – | – | – | – | – | – | – | –
O=[N+]([O-])C(=C(Nc1ccccc1)Nc1ccccc1)C(Cl)=C(Cl)Cl | 34.6 | 27.7 | 33.5 | 40.4 | 68.5 | 28.7 | 32.9 | 38 | 35.4 | 33 | – | – | – | – | – | – | – | – | – | –
O=C1CC2(CCC(O)(c3ccc4ccccc4c3)C(C(=O)c3ccc4ccccc4c3)C2)C(=O)c2ccccc2N1 (stereo not given) | > 100 | > 100 | > 100 | > 100 | > 100 | > 100 | > 100 | > 100 | > 100 | > 100 | – | – | – | – | – | – | – | – | – | –
CCOC(=O)c1cccc(N=Nc2nc[nH]c2/C=C/C(=O)OC)c1 | > 100 | 53.4 | > 100 | > 100 | > 100 | > 100 | > 100 | > 100 | > 100 | 53 | – | – | – | – | – | – | – | – | – | –
Cc1c2cc[n+](C)c(C)c2cc2c1[nH]c1ccccc12 | 83.8 | 82.1 | 57.7 | 10.8 | 89.2 | > 75.2 | 7.22 | > 100 | 46.2 | 26.5 | – | – | – | – | – | – | – | – | – | –
CCNC(=S)NNC(=O)C12CC3CC(CC(C3)C1)C2 | > 100 | > 100 | > 100 | > 100 | > 100 | > 100 | > 100 | > 100 | > 100 | > 100 | – | – | – | – | – | – | – | – | – | –
Cc1ccc(C2=CC(=O)OC(C[P+](c3ccccc3)(c3ccccc3)c3ccccc3)(c3ccccc3)O2)cc1 (stereo not given) | 29.1 | 47.3 | 30.7 | 60.4 | 32.4 | 30.7 | 30.9 | 35.6 | 33.8 | 43.8 | – | – | – | – | – | – | – | – | – | –
COC(=O)C(Cc1ccc2c(c1)CCC2)Cc1ccc2c(c1)CCC2 | > 100 | 88.8 | > 100 | > 100 | > 100 | > 100 | > 100 | > 100 | > 100 | > 100 | – | – | – | – | – | – | – | – | – | –
COc1cc2c(cc1OC)C1C3CCCCC3CCN1CC2 (stereo not given) | > 100 | > 100 | > 100 | > 100 | > 100 | > 100 | > 100 | > 100 | > 100 | > 100 | – | – | – | – | – | – | – | – | – | –
COc1ccc(C2OC(c3ccncc3)=NN2C)cc1F (stereo not given) | > 100 | > 100 | > 100 | > 100 | > 100 | > 100 | > 100 | > 100 | > 100 | > 100 | – | – | – | – | – | – | – | – | – | –
O=C(/C=C/c1ccccc1)Oc1ccc(C(=O)/C=C/c2ccccc2)cc1 | 17.7 | 8.2 | 16 | > 100 | > 31.6 | 18.8 | 38.5 | 20.8 | 22.3 | 18.8 | – | – | – | – | – | – | – | – | – | –
Clc1ccc(-c2nnc3sc4nc5ccccc5c-4nn23)c(Cl)c1 | > 100 | > 100 | > 100 | > 100 | > 100 | > 100 | > 100 | > 100 | > 100 | > 100 | – | – | – | – | – | – | – | – | – | –
O=C(O)CN1CCN2CCCCCN(CC1)CCN(CC(=O)O)CC2 | > 100 | 33.4 | > 100 | > 100 | > 100 | > 100 | > 100 | > 100 | > 100 | > 100 | – | – | – | – | – | – | – | – | – | –
CC(C)SC(=S)Sc1c(Cl)c(Cl)nc(Cl)c1Cl | 12.5 | 5.61 | 3.52 | 50.3 | 32.7 | 19.6 | 21.1 | 18.4 | 24.8 | 36.6 | – | – | – | – | – | – | – | – | – | –
O=C1NC2c3c(I)sc(I)c3C(O)C2O1 (stereo not given) | > 100 | > 100 | > 100 | > 100 | > 100 | > 100 | > 100 | > 100 | > 100 | > 100 | – | – | – | – | – | – | – | – | – | –
